Measured values: patent publication US9675070B2 (BAYER CROPSCIENCE AG, priority 2013, dated 2017)

What was measured:
Format in all cases: in vivo
[1] = tested on: engorged adult female cattle ticks (Boophilus microplus); assay: Boophilus microplus injection test (BOOPMI Inj); details: application rate 20 μg/animal; injection into abdomen; assessed after 7 days
Description: Boophilus microplus Injection Test (BOOPMI Inj)
Solvent: dimethyl sulphoxide
To produce a suitable preparation of active compound, 10 mg of active compound are mixed with 0.5 ml of solvent, and the concentrate is diluted with solvent to the desired concentration.
1 μl of the active compound solution is injected into the abdomen of 5 engorged adult female cattle ticks (Boophilus microplus). The animals are transferred into dishes and kept in a climate-controlled room.
The activity is assessed after 7 days by laying of fertile eggs. Eggs whose fertility is not visible from the outside are stored in a climate-controlled cabinet until the larvae hatch after about 42 days. An efficacy of 100% means that none of the ticks has laid any fertile eggs; 0% means that all eggs are fertile.

[2] = tested on: adult cat fleas (Ctenocephalides felis); assay: Ctenocephalides felis oral test (CTECFE); details: application rate 100 ppm in citrated cattle blood; after 2 days
Description: Ctenocephalides felis-Oral Test ([…]) Solvent: dimethyl sulphoxide To produce a suitable preparation of active compound, 10 mg of active compound are mixed with 0.5 ml of dimethyl sulphoxide. Dilution with citrated cattle blood gives the desired concentration. About 20 unfed adult cat fleas (Ctenocephalides felis) are placed into a chamber which is closed at the top and bottom with gauze. A metal cylinder whose bottom end is closed with a parafilm is placed onto the chamber. The cylinder contains the blood/active ingredient preparation, which can be imbibed by the fleas through the parafilm membrane. After 2 days, the kill in % is determined. 100% means that all of the fleas have been killed; 0% means that none of the fleas have been killed.

[3] = tested on: L1 larvae of the Australian sheep blowfly (Lucilia cuprina); assay: Lucilia cuprina test (LUCICU); details: application rate 100 ppm; minced horsemeat; after 2 days
Description: Lucilia cuprina Test (LUCICU) Solvent: dimethyl sulphoxide To produce a suitable preparation of active compound, 10 mg of active compound are mixed with 0.5 ml of dimethyl sulphoxide, and the concentrate is diluted with water to the desired concentration. About 20 L1 larvae of the Australian sheep blowfly (Lucilia cuprina) are transferred into a test vessel containing minced horsemeat and the active compound preparation of the desired concentration. After 2 days, the kill in % is determined. 100% means that all of the larvae have been killed; 0% means that none of the larvae have been killed.

[4] = tested on: larvae of the mustard beetle (Phaedon cochleariae); assay: Phaedon cochleariae spray test (PHAECO); details: Chinese cabbage leaf discs, after 7 days
Description: Phaedon cochleariae—Spray Test (PHAECO)
(§1) Solvents: 78.0 parts by weight of acetone
(§2) • 1.5 parts by weight of dimethylformamide Emulsifier: alkylaryl polyglycol ether
(§3) To produce a suitable preparation of active compound, 1 part by weight of active compound is dissolved using the stated parts by weight of solvent and made up with water comprising an emulsifier concentration of 1000 ppm until the desired concentration is reached. To produce further test concentrations, the preparation is diluted with emulsifier-containing water.
After 7 days, the efficacy in % is determined. 100% means that all of the beetle larvae have been killed; 0% means that none of the beetle larvae have been killed.

[5] = tested on: greenhouse red spider mite (Tetranychus urticae), OP-resistant; assay: Tetranychus urticae spray test, OP-resistant (TETRUR); details: bean leaf discs, after 6 days
Description: Tetranychus urticae—Spray Test, OP-Resistant (TETRUR)
as §1, §2, §3
Discs of bean leaves (Phaseolus vulgaris) which are infested by all stages of the greenhouse red spider mite (Tetranychus urticae) are sprayed with an active compound preparation of the desired concentration.
After 6 days, the efficacy in % is determined. 100% means that all of the spider mites have been killed; 0% means that none of the spider mites have been killed.

[6] = tested on: caterpillars of the armyworm (Spodoptera frugiperda); assay: Spodoptera frugiperda spray test (SPODFR); details: maize leaf discs, after 7 days
Description: Spodoptera frugiperda—Spray Test (SPODFR)
as §1, §2, §3
Leaf discs of maize (Zea mays) are sprayed with an active compound preparation of the desired concentration and, after drying, populated with caterpillars of the armyworm (Spodoptera frugiperda).
After 7 days, the efficacy in % is determined. 100% means that all of the caterpillars have been killed; 0% means that none of the caterpillars have been killed.

Structure (SMILES)	efficacy (no laying of fertile eggs) [1]	kill in % [2]	kill in % [3]	efficacy in % ([4]; application rate 100 g/ha)	efficacy in % ([5]; application rate 100 g/ha)	further results
Cn1nc(C(F)(F)C(F)(F)F)c(C(F)(F)F)c1-n1cc(-c2ccc(F)c(CNC(=O)C3CCOC3)c2)cn1 (racemic) [Ic-9]	100%	100%	100%	100%	90%	–
CC(NC(=O)C1CC1)c1cccc(-c2cnn(-c3c(C(F)(F)F)c(C(F)(F)C(F)(F)F)nn3C)c2)c1 (racemic) [Ic-21]	–	–	–	100%	90%	–
Cn1nc(C(F)(F)C(F)(F)F)c(C(F)(F)F)c1-n1cnc(-c2ccc(F)c(CNC(=O)C3CC3)c2)c1 [Ib-7]	–	–	–	100%	–	–
Cn1nc(C(F)(F)C(F)(F)F)c(C(F)(F)F)c1-n1cc(-c2ccc(F)c(CNC(=O)c3ccccc3)c2)cn1 [Ic-14]	100%	–	–	100%	90%	–
Cn1nc(C(F)(F)C(F)(F)F)c(C(F)(F)F)c1-n1cc(-c2ccc(F)c(CNC(=O)c3cccnc3)c2)cn1 [Ic-15]	90%	–	–	–	100%	–
Cn1nc(C(F)(F)C(F)(F)F)c(C(F)(F)F)c1-n1cc(-c2ccc(F)c(CNC=O)c2)cn1 [Ic-19]	100%	100%	100%	–	–	efficacy in % ([4]; application rate 500 g/ha): 100%; efficacy in % ([6]; application rate 500 g/ha): 83%; efficacy in % ([5]; application rate 500 g/ha): 90%
Cn1nc(C(F)(F)C(F)(F)F)c(C(F)(F)F)c1-n1cc(-c2ccc(F)c(CNC(=O)c3cncnc3)c2)cn1 [Ic-27]	100%	90%	–	83%	100%	–
CC(C)C(=O)NCc1cc(-c2cnn(-c3c(C(F)(F)F)c(C(F)(F)C(F)(F)F)nn3C)c2)ccc1F [Ic-28]	100%	90%	100%	100%	–	efficacy in % ([6]; application rate 100 g/ha): 100%
Cn1nc(C(F)(F)C(F)(F)F)c(C(F)(F)F)c1-n1cc(-c2cncc(CNC(=O)C3CC3)c2)cn1 [Ic-29]	–	–	–	100%	90%	–
CSC(C)C(=O)NCc1cc(-c2cnn(-c3c(C(F)(F)F)c(C(F)(F)C(F)(F)F)nn3C)c2)ccc1F (stereo not shown) [Ic-30]	100%	95%	100%	–	100%	–
CC(=O)NC(C)c1cccc(-c2cnn(-c3c(C(F)(F)F)c(C(F)(F)C(F)(F)F)nn3C)c2)c1 (stereo not shown) [Ic-31]	–	–	–	100%	–	–
CCC(=O)NCc1cc(-c2ccn(-c3c(C(F)(F)F)c(C(F)(F)C(F)(F)F)nn3C)n2)ccc1F [Id-2]	90%	80%	90%	100%	–	efficacy in % ([6]; application rate 100 g/ha): 100%
CC(=O)NCc1cc(-c2ccn(-c3c(C(F)(F)F)c(C(F)(F)C(F)(F)F)nn3C)n2)ccc1F [Id-4]	–	–	–	100%	–	–
CCC(=O)NCc1cccc(-c2ccn(-c3c(C(F)(F)F)c(C(F)(F)C(F)(F)F)nn3C)n2)c1 [Id-5]	–	–	–	100%	–	–
Cn1nc(C(F)(F)C(F)(F)F)c(C(F)(F)F)c1-n1ccc(-c2ccc(F)c(CNC(=O)C3CC3)c2)n1 [Id-9]	90%	–	–	100%	–	efficacy in % ([6]; application rate 100 g/ha): 83%
CC(=O)NCc1cccc(-c2cn(-c3c(C(F)(F)F)c(C(F)(F)C(F)(F)F)nn3C)nn2)c1 [Ig-6]	100%	100%	100%	100%	–	–
